The results in this text go back to the supplement of paper PMC10307832.

Test in all cases: relative viability (nuclei count vs DMSO), 5 days (fraction); higher = more cells survive
Compound in experiment [1]: O=C(c1cc(Cc2n[nH]c(=O)c3ccccc23)ccc1F)N1CCN(C(=O)C2CC2)CC1 [Olaparib] + COc1cc2c(Oc3ccc(NC(=O)C4(C(=O)Nc5ccc(F)cc5)CC4)cc3F)ccnc2cc1OCCCN1CCOCC1 [Foretinib] (partner 0.25 µM)
The method in brief:
(§1)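 Each reported value is a median over duplicate plates. It expresses relative viability: treated-well nuclei count divided by vehicle-well nuclei count. Lung cancer cell lines in 1536-well plates were dosed by pin tool a day after seeding, alone with one drug or with a fixed anchor-drug dose plus five library-drug doses (not always all listed) in √10 steps, and nuclei were counted after 5 days.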

Compound in experiment [2]: O=C(c1cc(Cc2n[nH]c(=O)c3ccccc23)ccc1F)N1CCN(C(=O)C2CC2)CC1 [Olaparib] + CC(=O)Nc1cccc(-n2c(=O)n(C3CC3)c(=O)c3c(Nc4ccc(I)cc4F)n(C)c(=O)c(C)c32)c1 [Trametinib] (partner 0.02 µM)
An outline of the steps:
as §1

Compound in experiment [3]: CC(C)C[C@H](NC(=O)[C@H](CCc1ccccc1)NC(=O)CN1CCOCC1)C(=O)N[C@@H](Cc1ccccc1)C(=O)N[C@@H](CC(C)C)C(=O)[C@@]1(C)CO1 [Carfilzomib] + COc1cccc2cc(-c3nc([C@H]4CC[C@H](C(=O)O)CC4)n4ncnc(N)c34)[nH]c12 [OSI-027] (partner 0.5 µM)
The method in brief: as §1

Compound in experiment [4]: C[C@@H](Oc1cc(-c2cnn(C3CCNCC3)c2)cnc1N)c1c(Cl)ccc(F)c1Cl [Crizotinib] + Nc1nc2[nH]cc(CCc3ccc(C(=O)N[C@@H](CCC(=O)O)C(=O)O)cc3)c2c(=O)[nH]1 [Pemetrexed] (partner 0.2 µM)
An outline of the steps: as §1

With NCI-H441, the relative viability in experiment [1] (first compound 0.08 µM) was found to be 1.13; in experiment [1] (first compound 0.253 µM) it was 0.857; in experiment [1] (first compound 2.53 µM) it was 0.967; in experiment [1] (first compound 8 µM) it was 0.83; in experiment [2] (first compound 0.08 µM) it was 0.548; in experiment [2] (first compound 0.253 µM), 0.442. The relative viability in experiment [2] (first compound 2.53 µM) was found to be 0.382; in experiment [2] (first compound 8 µM), 0.447; in experiment [3] (first compound 0.001 µM), 0.649; in experiment [3] (first compound 0.003162 µM), 0.588; in experiment [3] (first compound 0.01 µM), 0.295; in experiment [3] (first compound 0.03162 µM), 0.153. The relative viability in experiment [3] (first compound 0.1 µM) was 0.16; in experiment [4] (first compound 0.01 µM) it was 0.25; in experiment [4] (first compound 0.03162 µM) it was 0.265; in experiment [4] (first compound 0.1 µM) it was 0.292; in experiment [4] (first compound 0.3162 µM), 0.246; in experiment [4] (first compound 1 µM), 0.237.

As to ABC-1, the relative viability was 1.09 in experiment [1] (first compound 0.08 µM); 1.31 in experiment [1] (first compound 0.253 µM); 0.98 in experiment [1] (first compound 2.53 µM); 0.922 in experiment [1] (first compound 8 µM); 0.431 in experiment [3] (first compound 0.001 µM); 0.289 in experiment [3] (first compound 0.003162 µM). In addition, the relative viability was determined as 0.276 in experiment [3] (first compound 0.01 µM), 0.158 in experiment [3] (first compound 0.03162 µM) and 0.171 in experiment [3] (first compound 0.1 µM).

As to NCI-H2170, the relative viability was found to be 1.01 in experiment [1] (first compound 0.08 µM); 0.98 in experiment [1] (first compound 0.253 µM); 0.994 in experiment [1] (first compound 2.53 µM); 0.948 in experiment [1] (first compound 8 µM); 0.937 in experiment [2] (first compound 0.08 µM); 0.925 in experiment [2] (first compound 0.253 µM). Further, the relative viability in experiment [2] (first compound 2.53 µM) came to 0.883; in experiment [2] (first compound 8 µM), 0.8; in experiment [3] (first compound 0.001 µM) it was 0.643; in experiment [3] (first compound 0.003162 µM), 0.696; in experiment [3] (first compound 0.01 µM) it was 0.792; in experiment [3] (first compound 0.03162 µM), 0.72. The relative viability in experiment [3] (first compound 0.1 µM) worked out at 0.271; in experiment [4] (first compound 0.01 µM) it was 0.251; in experiment [4] (first compound 0.03162 µM) it was 0.283; in experiment [4] (first compound 0.1 µM), 0.265; in experiment [4] (first compound 0.3162 µM), 0.266; in experiment [4] (first compound 1 µM) it was 0.278.

Regarding NCI-H1944, the relative viability came to 0.704 in experiment [1] (first compound 0.08 µM); 0.784 in experiment [1] (first compound 0.253 µM); 0.648 in experiment [1] (first compound 2.53 µM); 0.603 in experiment [1] (first compound 8 µM); 0.435 in experiment [2] (first compound 0.08 µM); 0.376 in experiment [2] (first compound 0.253 µM). For the same cell line, the relative viability in experiment [2] (first compound 2.53 µM) came to 0.372; in experiment [2] (first compound 8 µM), 0.328; in experiment [3] (first compound 0.001 µM) it was 0.389; in experiment [3] (first compound 0.003162 µM), 0.489; in experiment [3] (first compound 0.01 µM), 0.474; in experiment [3] (first compound 0.03162 µM) it was 0.46. Besides, the relative viability in experiment [3] (first compound 0.1 µM) is 0.173; in experiment [4] (first compound 0.01 µM) it was 0.499; in experiment [4] (first compound 0.03162 µM), 0.614; in experiment [4] (first compound 0.1 µM), 0.621; in experiment [4] (first compound 0.3162 µM), 0.605; in experiment [4] (first compound 1 µM), 0.652.

On to PC-3 [JPC-3], for which the relative viability in experiment [1] (first compound 0.08 µM) was found to be 1.03; in experiment [1] (first compound 0.253 µM), 0.948; in experiment [1] (first compound 2.53 µM) it was 0.985; in experiment [1] (first compound 8 µM) it was 0.948; in experiment [2] (first compound 0.08 µM) it was 0.777; in experiment [2] (first compound 2.53 µM) it was 0.712. Also, the relative viability in experiment [2] (first compound 8 µM) worked out at 0.744; in experiment [3] (first compound 0.001 µM), 0.801; in experiment [3] (first compound 0.003162 µM), 0.775; in experiment [3] (first compound 0.01 µM) it was 0.813; in experiment [3] (first compound 0.03162 µM), 0.755; in experiment [3] (first compound 0.1 µM) it was 0.352. Further, the relative viability in experiment [4] (first compound 0.01 µM) amounted to 0.883; in experiment [4] (first compound 0.03162 µM) it was 1.23; in experiment [4] (first compound 0.1 µM), 1.19; in experiment [4] (first compound 1 µM) it was 1.05.

As for NCI-H1648, the relative viability in experiment [2] (first compound 0.08 µM) stood at 0.455; in experiment [2] (first compound 0.253 µM), 0.513; in experiment [2] (first compound 8 µM) it was 0.418; in experiment [3] (first compound 0.003162 µM), 0.272; in experiment [3] (first compound 0.01 µM), 0.256; in experiment [3] (first compound 0.03162 µM), 0.255. Besides, the relative viability in experiment [3] (first compound 0.1 µM) is 0.298; in experiment [4] (first compound 0.03162 µM), 0.703; in experiment [4] (first compound 0.1 µM), 0.568; in experiment [4] (first compound 0.3162 µM) it was 0.81; in experiment [4] (first compound 1 µM), 0.675.

For NCI-H1975, the relative viability in experiment [1] (first compound 0.08 µM) stood at 1.04; in experiment [1] (first compound 0.253 µM), 0.929; in experiment [1] (first compound 2.53 µM), 0.98; in experiment [1] (first compound 8 µM), 0.908; in experiment [2] (first compound 0.08 µM), 0.329; in experiment [2] (first compound 0.253 µM) it was 0.349. For the same cell line, the relative viability in experiment [2] (first compound 2.53 µM) came to 0.395; in experiment [2] (first compound 8 µM), 0.307; in experiment [3] (first compound 0.003162 µM), 0.715; in experiment [3] (first compound 0.01 µM), 0.503; in experiment [3] (first compound 0.03162 µM), 0.0875; in experiment [3] (first compound 0.1 µM), 0.106. The relative viability in experiment [4] (first compound 0.01 µM) turned out to be 0.296; in experiment [4] (first compound 0.03162 µM), 0.3; in experiment [4] (first compound 0.1 µM) it was 0.287; in experiment [4] (first compound 0.3162 µM), 0.301; in experiment [4] (first compound 1 µM), 0.291.

In the case of NCI-H650, the relative viability came out at 1.11 in experiment [1] (first compound 0.08 µM); 1.02 in experiment [1] (first compound 0.253 µM); 0.909 in experiment [1] (first compound 2.53 µM); 0.794 in experiment [1] (first compound 8 µM); 0.893 in experiment [2] (first compound 0.08 µM); 0.939 in experiment [2] (first compound 0.253 µM). Further, the relative viability in experiment [2] (first compound 2.53 µM) worked out at 0.915; in experiment [2] (first compound 8 µM) it was 0.782; in experiment [3] (first compound 0.003162 µM), 0.612; in experiment [3] (first compound 0.01 µM), 0.54; in experiment [3] (first compound 0.03162 µM) it was 0.439; in experiment [3] (first compound 0.1 µM) it was 0.221. In addition, the relative viability was 1.09 in experiment [4] (first compound 0.01 µM), 0.907 in experiment [4] (first compound 0.03162 µM), 0.956 in experiment [4] (first compound 0.1 µM) and 0.984 in experiment [4] (first compound 1 µM).

For the cell line NCI-H1623, the relative viability in experiment [1] (first compound 0.08 µM) worked out at 0.954; in experiment [1] (first compound 0.253 µM), 0.88; in experiment [1] (first compound 2.53 µM) it was 0.814; in experiment [1] (first compound 8 µM) it was 0.647; in experiment [3] (first compound 0.001 µM), 0.449; in experiment [3] (first compound 0.003162 µM), 0.462. Further, the relative viability came out at 0.46 in experiment [3] (first compound 0.01 µM), 0.374 in experiment [3] (first compound 0.03162 µM) and 0.312 in experiment [3] (first compound 0.1 µM).

For NCI-H1755, the relative viability in experiment [1] (first compound 0.08 µM) came to 0.922; in experiment [1] (first compound 0.253 µM), 0.898; in experiment [1] (first compound 2.53 µM), 0.868; in experiment [1] (first compound 8 µM), 0.787; in experiment [2] (first compound 0.08 µM) it was 0.728; in experiment [2] (first compound 0.253 µM) it was 0.738. The relative viability stood at 0.784 in experiment [2] (first compound 2.53 µM); 0.725 in experiment [2] (first compound 8 µM); 0.707 in experiment [3] (first compound 0.001 µM); 0.777 in experiment [3] (first compound 0.003162 µM); 0.746 in experiment [3] (first compound 0.01 µM); 0.65 in experiment [3] (first compound 0.03162 µM). For the same cell line, the relative viability in experiment [3] (first compound 0.1 µM) stood at 0.25; in experiment [4] (first compound 0.01 µM), 0.373; in experiment [4] (first compound 0.03162 µM) it was 0.44; in experiment [4] (first compound 0.1 µM), 0.382; in experiment [4] (first compound 0.3162 µM), 0.445; in experiment [4] (first compound 1 µM), 0.408.
